Patent US20260200964A1, “MONOSACCARIDES, PHARMACEUTICAL COMPOSITIONS, AND DIAGNOSTIC AND THERAPEUTIC APPLICATIONS” (Surio Therapeutics Co., LTD., priority 2022, published 2026)

How the values were obtained:
[1] = Compound stability in a biological matrix (mouse plasma); format: in vitro ADME; conditions: 10 μg/mL, 37° C., LC-MS/MS
Description: (§1) A compound was dissolved in DMSO as a 1 mg/mL stock solution. An ACN solution of the compound at 100 μg/mL was prepared from the stock solution, 10 μL of which was added to a biological matrix (90 μL) to the final concentration of 10 μg/mL for the compound. The mixtures of the compound in a biological matrix were incubated at 37° C. for 0, 0.5, 1, or 4 h. At each time point, ACN (900 μL) was added to a mixture. After the mixture was centrifuged at 15,000 rpm for 5 min, the supernatant was mixed with the same volume of H2O (1% TFA) and then analyzed by LC-MS/MS. The results are summarized in Table 3, wherein Cbz-AAM is (2R,3S,4R,5S)-6-((4-((S)-6-acetamido-2-(((benzyloxy)carbonyl)amino)hexan-amido)phenyl)(phenyl)methoxy)-2-(acetoxymethyl)-5-(2-azidoacetamido)tetrahydro-2H-pyran-3,4-diyl diacetate.

[2] = Compound stability in a biological matrix (human plasma); format: in vitro ADME; conditions: 10 μg/mL, 37° C., LC-MS/MS
Description: as §1

A549 cells = assay: Flow cytometry analysis of cell labeling (azido labeling efficiency); format: cell-based; conditions: Homo sapiens; A549 cells (lung); azido compound 25 μM, 48 h; mean fluorescence of live cells compared with PBS negative control
Description: Cells (2.0×10^6 cells/mL, 2 mL) were seeded in a 6-well culture plate and attached at 37° C. overnight. After washed thrice with PBS, the cells were incubated with an azido compound (25 μM) at 37° C. for 48 h. After washed thrice with PBS, the cells were incubated with DBCO-biotin (50 μM) in 500 μL serum free DMEM at 37° C. for 1 h. The cells were washed thrice with PBS and then incubated with streptavidin-Cy5 (5 μg/mL) in 500 μL serum free DMEM at 37° C. for 1 h. The cells were washed thrice with PBS, followed by addition of 300 μL 1×trypsin/EDTA for digestion. The lifted cells were transferred to a 1.5 mL EP tube, centrifuge at 1,000 rpm for 3 min, and washed with PBS once. Finally, 500 μL PBS containing 4% PFA was added to the cell pellet to fix the cells. The cell suspension was transferred to a flow tube and mixed with 10 μL of a PI working solution (50 μg/mL) at room temperature for 30 min before being subjected to flow cytometry.
Flow cytometry was used to characterize the labeling efficiency of a compound provided herein. After cells were labeled with an azido group, DBCO-biotin was added to specifically react with the azido group. Avidin-Cy5 was added bind to the cell surface biotin for a flow cytometry analysis. Dead cells were stained with PI and excluded from the analysis. Results were presented as the mean fluorescence of live cells, compared with PBS as a negative control and Ac4ManNAz (AAM) as a positive control, Ac4ManNAz (AAM, CAS: 361154-30-5).

Row | Compound Remaining (%) Mouse 1 h [1] [%] | Compound Remaining (%) Human 1 h [2] [%] | Compound Remaining (%) Human 4 h [2] [%] | Compound Remaining (%) Mouse 4 h [1] [%] | Structure (SMILES) | activity at 25 µM (A549 cells) [%]
1 | 91 | 94 | 70 | 72 | CC(=O)NCCCC[C@H](NC(=O)OCc1ccccc1)C(=O)Nc1ccc(C(OC2OC(COC(C)=O)C(OC(C)=O)C(OC(C)=O)C2NC(=O)CN=[N+]=[N-])c2cnc[nH]2)cc1 (stereo partly drawn) [Compound A1, 1-O-(1-(imidazol-4-yl)-1-(4-(6-acetamido-2(S)-(benzyloxycarbonylamino)-hexanamido)phenyl)methyl)-2-(2-azidoacetylamino)-2-deoxy-3,4,6-tri-O-acetyl-D-mannopyranoside] | 103
2 | 72 | – | – | 19 | CC(=O)NCCCC[C@H](NC(=O)OCc1ccccc1)C(=O)Nc1ccc(C(OC2OC(COC(C)=O)C(OC(C)=O)C(OC(C)=O)C2NC(=O)CN=[N+]=[N-])c2cncs2)cc1 (stereo partly drawn) [Compound A3, 1-O-(1-(thiazol-5-yl)-1-(4-(6-acetamido-2(S)-(benzyloxycarbonylamino)-hexanamido)phenyl)methyl)-2-(2-azidoacetylamino)-2-deoxy-3,4,6-tri-O-acetyl-D-mannopyranoside] | –
3 | 3 | 2 | 1 | 3 | CC(=O)NCCCC[C@H](NC(=O)OCc1ccccc1)C(=O)Nc1ccc(C(OC2OC(COC(C)=O)C(OC(C)=O)C(OC(C)=O)C2NC(=O)CN=[N+]=[N-])c2cccs2)cc1 (stereo partly drawn) [Compound A4, 1-O-(1-(thien-2-yl)-1-(4-(6-acetamido-2(S)-(benzyloxycarbonylamino)-hexanamido)phenyl)methyl)-2-(2-azidoacetylamino)-2-deoxy-3,4,6-tri-O-acetyl-D-mannopyranoside] | 83
4 | 4 | 88 | 65 | 0.6 | CC(=O)NCCCC[C@H](NC(=O)OCc1ccccc1)C(=O)Nc1ccc(C(OC2OC(COC(C)=O)C(OC(C)=O)C(OC(C)=O)C2NC(=O)CN=[N+]=[N-])c2cccnc2)cc1 (some centres unmarked) [Compound A6] | –

Second part, the compound before the results:

Row | Structure (SMILES) | Compound Remaining (%) Mouse 1 h [1] [%] | Compound Remaining (%) Human 1 h [2] [%] | Compound Remaining (%) Human 4 h [2] [%] | Compound Remaining (%) Mouse 4 h [1] [%] | activity at 25 µM (A549 cells) [%]
5 | CC(=O)NCCCC[C@H](NC(=O)OCc1ccccc1)C(=O)Nc1ccc(C(OC2O[C@H](COC(C)=O)[C@@H](OC(C)=O)[C@H](OC(C)=O)[C@@H]2NC(=O)CN=[N+]=[N-])c2ccccc2)cc1 (stereo partly drawn) [Cbz-AAM, (2R,3S,4R,5S)-6-((4-((S)-6-acetamido-2-(((benzyloxy)carbonyl)amino)hexan-amido)phenyl)(phenyl)methoxy)-2-(acetoxymethyl)-5-(2-azidoacetamido)tetrahydro-2H-pyran-3,4-diyl diacetate, reference compound] | 16 | 100 | 100 | – | –
6 | CC(=O)NCCCC[C@H](NC(=O)OCc1ccccc1)C(=O)Nc1ccc(C(OC2OC(COC(C)=O)C(OC(C)=O)C(OC(C)=O)C2NC(=O)CN=[N+]=[N-])c2cn(C)cn2)cc1 (stereo partly drawn) [Compound A2, 1-O-(1-(1-methylimidazol-4-yl)-1-(4-(6-acetamido-2(S)-(benzyloxycarbonylamino)-hexanamido)phenyl)methyl)-2-(2-azidoacetylamino)-2-deoxy-3,4,6-tri-O-acetyl-D-mannopyranoside] | 98 | 100 | 90 | 87 | 250
7 | CC(=O)NCCCC[C@H](NC(=O)OCc1ccccc1)C(=O)Nc1ccc(C(OC2OC(COC(C)=O)C(OC(C)=O)C(OC(C)=O)C2NC(=O)CN=[N+]=[N-])c2ccsc2)cc1 (stereo partly drawn) [Compound A5, 1-O-(1-(Thien-3-yl)-1-(4-(6-acetamido-2(S)-(benzyloxycarbonylamino)hexan-amido)phenyl)methyl)-2-(2-azidoacetylamino)-2-deoxy-3,4,6-tri-O-acetyl-D-mannopyranoside] | 2 | 2 | 1 | 2 | 130
8 | CC(=O)NCCCC[C@H](NC(=O)OCc1ccccc1)C(=O)Nc1ccc(C(OC2OC(COC(C)=O)C(OC(C)=O)C(OC(C)=O)C2NC(=O)CN=[N+]=[N-])c2ccncc2)cc1 (stereo partly drawn) [Compound A7, 1-O-(1-(Pyridin-4-yl)-1-(4-(6-acetamido-2(S)-(benzyloxycarbonylamino)hexan-amido)phenyl)methyl)-2-(2-azidoacetylamino)-2-deoxy-3,4,6-tri-O-acetyl-D-mannopyranoside] | 29 | 41 | 4 | 6 | –
9 | CC(=O)NCCCC[C@H](NC(=O)OCc1ccccc1)C(=O)Nc1ccc(C(OC2OC(COC(=O)C3CCOCC3)C(OC(C)=O)C(OC(C)=O)C2NC(=O)CN=[N+]=[N-])c2ccnn2C)cc1 (stereo partly drawn) [Compound A9, 1-O-(1-(2-methylpyrazol-3-yl)-1-(4-(6-acetamido-2(S)-(benzyloxycarbonyl-amino)hexanamido)phenyl)methyl)-2-(2-azidoacetylamino)-2-deoxy-3,4-di-O-acetyl-6-O-tetrahydropyran-4-ylcarbonyl-D-mannopyranoside] | 84 | 63 | 16 | 27 | 197
10 | CC(=O)NCCCC[C@H](NC(=O)OCc1ccccc1)C(=O)Nc1ccc(C(OC2OC(COC(=O)C3CCN(C)CC3)C(OC(C)=O)C(OC(C)=O)C2NC(=O)CN=[N+]=[N-])c2ccnn2C)cc1 (stereo partly drawn) [Compound A10, 1-O-(1-(2-Methylpyrazol-3-yl)-1-(4-(6-acetamido-2(S)-(benzyloxycarbonyl-amino)hexanamido)phenyl)methyl)-2-(2-azidoacetylamino)-2-deoxy-3,4-di-O-acetyl-6-O-(1-methylpiperidin-4-yl)carbonyl-D-mannopyranoside] | 81 | 62 | 5 | 21 | 166
11 | CC(=O)NCCCC[C@H](NC(=O)OCc1ccccc1)C(=O)Nc1ccc(C(OC2OC(COC(=O)CN3CCCC3)C(OC(C)=O)C(OC(C)=O)C2NC(=O)CN=[N+]=[N-])c2ccnn2C)cc1 (stereo partly drawn) [Compound A11, 1-O-(1-(2-Methylpyrazol-3-yl)-1-(4-(6-acetamido-2(S)-(benzyloxycarbonyl-amino)hexanamido)phenyl)methyl)-2-(2-azidoacetylamino)-2-deoxy-3,4-di-O-acetyl-6-O-(pyrrolin-1-ylacetyl)-D-mannopyranoside] | 38 | – | – | 3 | –
12 | CC(=O)NCCCC[C@H](NC(=O)OCc1ccccc1)C(=O)Nc1ccc(C(OC2OC(COC(=O)Cc3cccnc3)C(OC(C)=O)C(OC(C)=O)C2NC(=O)CN=[N+]=[N-])c2ccnn2C)cc1 (stereo partly drawn) [Compound A12, 1-O-(1-(2-Methylpyrazol-3-yl)-1-(4-(6-acetamido-2(S)-(benzyloxycarbonyl-amino)hexanamido)phenyl)methyl)-2-(2-azidoacetylamino)-2-deoxy-3,4-di-O-acetyl-6-O-(pyridin-3-ylacetyl)-D-mannopyranoside] | 82 | 64 | 8 | 27 | 165
